The source of these data is article PMC12480751, “A quantitative high-throughput screening pipeline to identify small molecule inhibitors of Chikungunya nsP2 protease” (Scientific Reports, 2025).

For data set [1], the target named is T1, CHIKV nsP2pro (Chikungunya virus, UniProt Q8JUX6). The data set can be described thus: FRET-based nsP2pro proteolytic assay with peptide 2 (nsp3/4 site), 1,536-well qHTS. In kind it is biochemical.
Data set [2] has as its target T2, nsP2 protease (Chikungunya virus, UniProt Q8JUX6).
T2 construct: expressed in transfected cells; host or cells: HEK293T (the results text says HEK293), transient co-transfection in pcDNA3.1(+)
T2 sequence (Q8JUX6 755-1333 limits assumed): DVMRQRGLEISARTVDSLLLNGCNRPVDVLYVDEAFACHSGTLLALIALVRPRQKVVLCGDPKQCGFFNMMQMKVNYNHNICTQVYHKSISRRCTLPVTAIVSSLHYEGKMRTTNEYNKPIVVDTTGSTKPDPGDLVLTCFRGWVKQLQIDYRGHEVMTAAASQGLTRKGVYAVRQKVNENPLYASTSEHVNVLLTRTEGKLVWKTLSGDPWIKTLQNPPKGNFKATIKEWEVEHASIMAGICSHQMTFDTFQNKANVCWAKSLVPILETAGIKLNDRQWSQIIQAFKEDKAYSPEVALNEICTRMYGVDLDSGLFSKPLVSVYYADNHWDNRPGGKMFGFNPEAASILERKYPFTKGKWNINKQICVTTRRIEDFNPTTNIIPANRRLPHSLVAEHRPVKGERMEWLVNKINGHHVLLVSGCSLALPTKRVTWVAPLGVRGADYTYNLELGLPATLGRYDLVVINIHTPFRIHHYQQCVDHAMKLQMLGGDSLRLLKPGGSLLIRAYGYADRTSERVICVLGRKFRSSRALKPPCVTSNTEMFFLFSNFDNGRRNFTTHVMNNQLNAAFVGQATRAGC
Nature of the data set: cell-based. It is filed as cell-based.

Data set [3] deals with SNB19 cells. Nature of the data set: CellTiter-Glo cell viability assay of SNB19 cells. In kind it is cell-based, human. As to conditions: 48 h. The protocol:
Cells were harvested in growth media and dispensed (5 µL /1,000 cells/well) onto 1536-well white plates (Aurora #EWB041000A) using a Multidrop Combi. Control and test compounds were added (25 nL) using an Echo 650 liquid handler. Plates were incubated for 48 h at 37 °C and 5% CO2 and then equilibrated to room temperature prior to addition of 4 µL /well of CellTiter-Glo (Promega) using a Multidrop Combi. Plates were subsequently incubated for 15 min at room temperature and centrifuged for 1 min at 1000 rpm. Luminescence was read on a ViewLux imager equipped with clear filters.
(In general: In ATP-based viability assays light output follows the ATP content of the culture.)

Data set [4] has as its target T3, full-length nsP2 (Chikungunya virus, UniProt Q8JUX6, C1333A).
T3 sequence (Q8JUX6 536-1333 C1333A): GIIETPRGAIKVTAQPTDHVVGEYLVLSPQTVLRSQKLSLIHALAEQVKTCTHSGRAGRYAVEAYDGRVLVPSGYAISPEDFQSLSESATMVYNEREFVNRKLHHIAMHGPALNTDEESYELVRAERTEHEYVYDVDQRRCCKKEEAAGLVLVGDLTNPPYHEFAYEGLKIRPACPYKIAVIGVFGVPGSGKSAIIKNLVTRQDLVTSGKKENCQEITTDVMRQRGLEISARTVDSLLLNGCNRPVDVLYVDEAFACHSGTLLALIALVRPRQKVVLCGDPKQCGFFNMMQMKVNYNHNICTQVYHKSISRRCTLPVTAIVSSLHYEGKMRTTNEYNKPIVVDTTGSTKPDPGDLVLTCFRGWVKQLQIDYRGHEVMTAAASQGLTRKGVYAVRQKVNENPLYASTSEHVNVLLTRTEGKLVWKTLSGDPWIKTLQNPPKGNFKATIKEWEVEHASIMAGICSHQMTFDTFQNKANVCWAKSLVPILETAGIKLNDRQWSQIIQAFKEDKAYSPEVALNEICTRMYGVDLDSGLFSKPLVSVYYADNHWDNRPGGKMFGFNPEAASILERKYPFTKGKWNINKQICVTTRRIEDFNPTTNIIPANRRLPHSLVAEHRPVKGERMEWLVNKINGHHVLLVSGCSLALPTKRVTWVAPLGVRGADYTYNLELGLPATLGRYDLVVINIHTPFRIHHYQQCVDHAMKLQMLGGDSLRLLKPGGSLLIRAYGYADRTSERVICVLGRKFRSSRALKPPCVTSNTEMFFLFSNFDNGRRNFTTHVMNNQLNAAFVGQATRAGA
The data set can be described thus: FRET-based full-length nsP2 proteolytic assay with peptide 2. In kind it is biochemical. Conditions: full-length nsP2 and peptide 2; read-out: IC50, inhibition of nsp3/4 cleavage by full-length enzyme. The protocol: (§1) To gain further insight on their therapeutic potential, we investigated whether confirmed hits inhibit proteolytic activity in the context of full-length nsP2 protein rather than isolated protease domain[13]. To test the set of confirmed inhibitors, we chose peptide 2 substrate and full-length enzyme concentrations of 1 μM and 150 nM, respectively. Compound activity correlated well between nsP2pro and full-length enzyme (Fig. 2A). Additionally, we tested whether hits inhibit proteolysis of the nsP2/3 site.
All reactions were incubated at room temperature (RT).
Two point five μM peptide 2 substrate and 150 nM nsP2pro were selected to run the assay into 1536-well plate format. ZnAc was used as a positive control in the assay (50 µM). […] For primary screens, compounds were tested at 7 concentrations, 1:3 dilution points ranging from 25 µM to 34 nM. […] Four µL nsP2pro enzyme mix in assay buffer (10 mM Tris⋅HCl pH 8.0 with 0.01% Tween 20) was dispensed into the plate using a BioRAPTR FRD liquid dispenser (Beckman Coulter). […] After 1 h, plates were immediately read on a ViewLux high-throughput CCD imager (Exposure = 10 s, Gain = High, Speed = Slow, Binning = 2X). The above assay was also incorporated in the NCATS HTS facility, which allowed for robotic liquid and compound dispensing, microplate handling, and fluorescence reading. […]

For data set [5], the target named is T1, CHIKV nsP2pro. Nature of the data set: FRET-based nsP2pro proteolytic assay with peptide 3 (nsp2/3 site). It is filed as biochemical. As to conditions: nsP2pro and peptide 3; read-out: IC50, inhibition of cleavage of nsp2/3 peptide by nsp2pro. The protocol: as §1
Two point five μM peptide 2 substrate and 150 nM nsP2pro were selected to run the assay into 1536-well plate format. ZnAc was used as a positive control in the assay (50 µM). […] For primary screens, compounds were tested at 7 concentrations, 1:3 dilution points ranging from 25 µM to 34 nM. […] Four µL nsP2pro enzyme mix in assay buffer (10 mM Tris⋅HCl pH 8.0 with 0.01% Tween 20) was dispensed into the plate using a BioRAPTR FRD liquid dispenser (Beckman Coulter). The plate was incubated at RT (protected from light) for 15 min before addition of 4 µL substrate in assay buffer. After 1 h, plates were immediately read on a ViewLux high-throughput CCD imager (Exposure = 10 s, Gain = High, Speed = Slow, Binning = 2X). The above assay was also incorporated in the NCATS HTS facility, which allowed for robotic liquid and compound dispensing, microplate handling, and fluorescence reading. […]

Data set [6] concerns CHIKV. Details: method as in PMID 30018455. Conditions: cited from earlier work.

`CC(C)n1nc(C#Cc2ccccc2)c2c(N)ncnc21` [SPP 86]: the “Enzymatic % Efficacy” value in data set [1] (nsP2pro biochemical assay, 13 cell-active hits) is on record as -114.8%. Further, the IC50 in data set [1] (nsP2pro biochemical assay, 13 cell-active hits, read-out: Enzymatic IC50) turned out to be 8 µM. Further, the “Cell-based % Efficacy” value in data set [2] was 146.3%. For the same molecule, the AC50 (as a rule, the midpoint of the concentration-response curve, whichever way the signal moves) in data set [2] (read-out: Cell-based AC50) turned out to be 18.3 µM. In addition, it took 16.4 µM to reach half-maximal cytotoxicity in data set [3] (CC50).

For `CC(=O)[O-].CC(=O)[O-].[Zn+2]` [ZnAc, Zinc acetate], the IC50 is 0.192 ± 0.012 µM in data set [1] (nsP2pro and peptide 2, read-out: IC50, inhibition of nsp3/4 cleavage by nsP2pro); 0.137 ± 0.011 µM in data set [4]; 0.685 ± 0.077 µM in data set [5]. Also, in data set [2], the “effect on Nluc reporter signal in cellular nsp2 proteolytic assay” value is “did not increase Nluc reporter signal”. The “concentrations effective in preventing CHIKV viral infection” value in data set [6] was “higher than 60 µM”.
